The test system of data set [1] is Forssman shock. As to the kind of experiment: Forssman shock. In kind it is in vivo, guinea pig. The settings on record: test compound 3 mg/kg before intravenous hemolysin; individual male guinea pigs; control died at 278, 318, 296 sec. The text has this: Quite different from other animals, guinea pig has on the surface of its organs a specific antigen called Forssman antigen which specifically reacts with the antibody of sheep erythrocyte. Forssman shock is based on the above principle and is a shock caused by the administration of antibody of sheep erythrocyte to a guinea pig. The Forssman shock was investigated in detail by many researches and it was definitely shown that this shock is a model case where the complement plays the principal part and that the shock is associated with a classical pathway in which the complement system is activated progressively starting from C1. Since the participation of complement in autoimmune diseases has been established, the Forssman shock can be said to be useful means for testing a drug for autoimmune diseases. A drug effective for the treatment of Forssman shock is useful as a drug of autoimmune diseases. [Anti-trypsin, anti-plasmin, anti-kallikrein and anti-thrombin activities]
The experiment was performed according to the method of I. G. Offerness et al. [Biochem. Pharmacol., 27 (14), 1873-1878 (1978)]. Male Hartlay guinea pig of about 300 g in body weight was used. Each guinea pig of the control group was administered intravenously with hemolysin (minimum dose to cause the shock) (commercial hemolysin, 5,000 U as assayed by the method of Ogata) and the time elapsed until death was observed. […]

Data set [2] concerns the target Thrombin (Homo sapiens, UniProt P00734). The data set is described as follows: biochemical. As to conditions: molar concentration inhibiting 50% of TAME hydrolysis; read-out: ID50 thrombin.
Data set [3] concerns complement. The data set is described as follows: Inhibition of complement mediated hemolysis. It counts as cell-based. In short, it runs like this:
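Anti-C1 esterase (C1r, C1s) activity was measured as suppression of hemolysis when a known amount of complement, mixed with inhibitor, is added to antibody-sensitized erythrocytes. Method of Okamura et al.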

The target of data set [4] is T1, Trypsin (Bos taurus, UniProt P00760).
T1 sequence (P00760 24-246): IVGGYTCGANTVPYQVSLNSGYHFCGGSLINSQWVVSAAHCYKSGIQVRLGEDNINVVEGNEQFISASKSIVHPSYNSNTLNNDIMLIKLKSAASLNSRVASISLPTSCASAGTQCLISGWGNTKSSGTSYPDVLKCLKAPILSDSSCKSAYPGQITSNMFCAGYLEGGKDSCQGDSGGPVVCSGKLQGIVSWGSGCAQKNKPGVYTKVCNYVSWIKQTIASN
The data set is described as follows: Anti-trypsin activity (hydrolysis of TAME). It counts as biochemical. The settings on record: molar concentration inhibiting 50% of TAME hydrolysis; read-out: ID50 trypsin.

Data set [5] deals with Kallikrein. As to the kind of experiment: Anti-kallikrein activity (hydrolysis of TAME). In kind it is biochemical. As to conditions: molar concentration inhibiting 50% of TAME hydrolysis; read-out: ID50 kallikrein.
Data set [6] addresses T2, C1s (Homo sapiens, UniProt P09871).
T2 sequence (P09871 438-688 limits assumed): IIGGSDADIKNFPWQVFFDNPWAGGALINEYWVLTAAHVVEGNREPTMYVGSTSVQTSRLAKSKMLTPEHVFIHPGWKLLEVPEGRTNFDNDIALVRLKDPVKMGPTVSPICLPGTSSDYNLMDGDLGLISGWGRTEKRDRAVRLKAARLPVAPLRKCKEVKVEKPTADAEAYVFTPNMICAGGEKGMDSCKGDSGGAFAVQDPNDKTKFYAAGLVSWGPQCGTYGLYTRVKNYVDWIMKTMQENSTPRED
T2 sequence (P09871 16-437 partner limits assumed): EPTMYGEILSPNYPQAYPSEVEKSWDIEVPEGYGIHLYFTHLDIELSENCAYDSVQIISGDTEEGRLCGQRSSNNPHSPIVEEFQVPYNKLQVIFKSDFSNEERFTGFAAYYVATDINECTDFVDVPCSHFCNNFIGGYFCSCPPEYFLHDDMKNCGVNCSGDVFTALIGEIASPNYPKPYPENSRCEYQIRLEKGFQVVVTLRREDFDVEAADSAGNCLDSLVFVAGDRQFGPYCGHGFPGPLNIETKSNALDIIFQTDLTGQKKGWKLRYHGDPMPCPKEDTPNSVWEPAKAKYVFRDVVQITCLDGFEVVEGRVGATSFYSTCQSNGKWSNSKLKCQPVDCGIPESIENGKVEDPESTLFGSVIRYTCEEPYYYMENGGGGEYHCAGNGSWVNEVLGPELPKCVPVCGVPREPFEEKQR
As to the kind of experiment: Anti-C1s activity (hydrolysis of ATEE). It counts as biochemical. The settings on record: molar concentration inhibiting 50% of ATEE hydrolysis; read-out: ID50 C1s (Anti-C1 activity). Put shortly: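 Method of Okamura et al.: C1s esterase hydrolysis of acetyltyrosine ethyl ester (ATEE) measured with test compound. Value is ID50, molar concentration inhibiting 50% of ATEE hydrolysis.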

The target in data set [7] is T3, C1r (Homo sapiens, UniProt P00736).
T3 sequence (P00736 464-705 limits assumed): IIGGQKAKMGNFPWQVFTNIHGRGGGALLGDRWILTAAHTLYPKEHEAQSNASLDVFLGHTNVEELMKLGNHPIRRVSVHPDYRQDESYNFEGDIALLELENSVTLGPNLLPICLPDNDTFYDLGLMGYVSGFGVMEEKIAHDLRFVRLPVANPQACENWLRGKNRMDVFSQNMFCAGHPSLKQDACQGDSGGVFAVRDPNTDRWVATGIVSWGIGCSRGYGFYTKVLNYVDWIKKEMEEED
T3 sequence (P00736 18-463 partner limits assumed): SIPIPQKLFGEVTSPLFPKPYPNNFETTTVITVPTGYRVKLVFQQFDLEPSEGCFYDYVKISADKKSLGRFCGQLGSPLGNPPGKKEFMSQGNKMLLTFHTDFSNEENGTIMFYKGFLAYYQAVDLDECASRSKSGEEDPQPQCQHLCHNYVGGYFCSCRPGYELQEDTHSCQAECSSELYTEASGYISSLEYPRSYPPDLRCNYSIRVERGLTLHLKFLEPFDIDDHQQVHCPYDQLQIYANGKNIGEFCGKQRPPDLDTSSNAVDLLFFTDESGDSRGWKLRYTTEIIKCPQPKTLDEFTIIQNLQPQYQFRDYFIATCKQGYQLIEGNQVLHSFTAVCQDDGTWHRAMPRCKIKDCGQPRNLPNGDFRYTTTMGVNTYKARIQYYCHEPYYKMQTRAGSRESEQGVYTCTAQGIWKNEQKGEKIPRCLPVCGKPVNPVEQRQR
The data set is described as follows: biochemical. The settings on record: molar concentration inhibiting 50% of AAME hydrolysis; read-out: ID50 C1r (Anti-C1 activity).

In data set [8] the target is Plasmin (Homo sapiens, UniProt P00747). The data set is described as follows: Anti-plasmin activity (hydrolysis of TAME). In kind it is biochemical. The settings on record: molar concentration inhibiting 50% of TAME hydrolysis; read-out: ID50 plasmin. As to the method:
The anti-trypsin, anti-plasmin, anti-kallikrein and anti-thrombin activities were determined according to the method of Muramatsu et al. [M. Muramatus, T. Onishi, S. Makino, Y. Hayashi and S. Fujii, J. of Biochem., 58, 214 (1965)]. […] The compound No. corresponds to the compound number shown in Examples.

Data set [9] in a line: Median lethal dose (LD50). As to conditions: in vivo, mouse.

Sequence of Plasmin (P00747 581-810 limits assumed, species assumed): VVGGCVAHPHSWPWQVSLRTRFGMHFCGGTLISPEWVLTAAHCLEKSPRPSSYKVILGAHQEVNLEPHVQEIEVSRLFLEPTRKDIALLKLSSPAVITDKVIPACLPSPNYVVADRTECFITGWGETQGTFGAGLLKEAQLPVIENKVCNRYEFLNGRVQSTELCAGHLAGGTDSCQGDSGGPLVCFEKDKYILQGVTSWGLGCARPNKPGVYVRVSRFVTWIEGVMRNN
Sequence of Plasmin (P00747 97-580 partner limits assumed, species assumed): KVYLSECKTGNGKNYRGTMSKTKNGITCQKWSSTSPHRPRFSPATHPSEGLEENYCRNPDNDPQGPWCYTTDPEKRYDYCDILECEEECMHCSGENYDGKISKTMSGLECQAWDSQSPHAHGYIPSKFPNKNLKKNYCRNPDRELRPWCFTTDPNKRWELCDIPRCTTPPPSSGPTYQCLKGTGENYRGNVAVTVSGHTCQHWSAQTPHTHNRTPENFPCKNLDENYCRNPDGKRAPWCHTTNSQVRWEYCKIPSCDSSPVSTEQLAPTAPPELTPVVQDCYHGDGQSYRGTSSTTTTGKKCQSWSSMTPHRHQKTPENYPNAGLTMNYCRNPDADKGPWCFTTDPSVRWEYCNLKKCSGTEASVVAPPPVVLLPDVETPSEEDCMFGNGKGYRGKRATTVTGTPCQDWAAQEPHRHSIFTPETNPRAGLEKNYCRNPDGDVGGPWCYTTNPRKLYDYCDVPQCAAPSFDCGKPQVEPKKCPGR

A word on the LD50: it is the dose at which mortality reaches 50%. Read a high LD50 as a less toxic substance. Take `N=C(N)c1ccc2cc(OC(=O)c3ccc(CN)s3)ccc2c1` [Compound No. 31, 6-amidino-2-naphthyl 5-aminomethyl-thiophene-2-carboxylate]: the “time elapsed until death (survival) in Forssman shock” value in data set [1] is reported as “Survival”. Further, the IC50 in data set [2] was found to be 1000 nM; in data set [4], 20 nM; in data set [5], 400 nM; in data set [6], 300 nM; in [7] it was 200 nM; in data set [8], 400 nM. The “Inhibition of complement mediated hemolysis (%)” value came out at 100% in data set [3] (1 × 10^-5), 98% in data set [3] (1 × 10^-6) and 97% in data set [3] (1 × 10^-7). Moreover, the 50% lethal dose (LD50) in [9] (ip, I.P.) was found to be 200 mg/kg; in [9] (po, P.O.) it was 2500 mg/kg.

(Values after patent publication US4563527A, “Amidine compounds” (Torii & Co., Ltd., priority 1984, dated 1986).)
